Our source for the mutagenic call values is PubChem BioAssay AID1259407 (Chemical Carcinogenesis Research Information System (CCRIS), 2018).

The data set concerns CCRIS mutagenicity, Ames/micronucleus/aberration tests. The data set is described as follows: CCRIS mutagenicity studies.
Setting [1] is: Test System: AMES SALMONELLA TYPHIMURIUM, Strain/Indicator: TA98, Metabolic Activation: NONE, Method: STANDARD PLATE.
[2] abbreviates: Test System: AMES SALMONELLA TYPHIMURIUM, Strain/Indicator: TA98, Metabolic Activation: RAT, LIVER, S-9, AROCLOR 1254, Method: STANDARD PLATE.
Setting [3] is: Test System: AMES SALMONELLA TYPHIMURIUM, Strain/Indicator: TA100, Metabolic Activation: NONE, Method: STANDARD PLATE.
Where [4] appears, read: Test System: AMES SALMONELLA TYPHIMURIUM, Strain/Indicator: TA100, Metabolic Activation: RAT, LIVER, S-9, AROCLOR 1254, Method: STANDARD PLATE.
Where [5] appears, read: Test System: AMES SALMONELLA TYPHIMURIUM, Strain/Indicator: TA98, Metabolic Activation: HAMSTER, LIVER, S-9, AROCLOR 1254 (30%), Method: PREINCUBATION
[6] abbreviates: Test System: AMES SALMONELLA TYPHIMURIUM, Strain/Indicator: TA98, Metabolic Activation: NONE, Method: PREINCUBATION
Where [7] appears, read: Test System: AMES SALMONELLA TYPHIMURIUM, Strain/Indicator: TA100, Metabolic Activation: HAMSTER, LIVER, S-9, AROCLOR 1254 (30%), Method: PREINCUBATION
Setting [8] is: Test System: AMES SALMONELLA TYPHIMURIUM, Strain/Indicator: TA100, Metabolic Activation: NONE, Method: PREINCUBATION
[9] abbreviates: Test System: AMES SALMONELLA TYPHIMURIUM, Strain/Indicator: TA97, Metabolic Activation: HAMSTER, LIVER, S-9, AROCLOR 1254 (10%), Method: PREINCUBATION
The mark [10] stands for this setting: Test System: AMES SALMONELLA TYPHIMURIUM, Strain/Indicator: TA97, Metabolic Activation: NONE, Method: PREINCUBATION
[11] abbreviates: Test System: AMES SALMONELLA TYPHIMURIUM, Strain/Indicator: TA97, Metabolic Activation: RAT, LIVER, S-9, AROCLOR 1254 (10%), Method: PREINCUBATION
Setting [12] is: Test System: AMES SALMONELLA TYPHIMURIUM, Strain/Indicator: TA98, Metabolic Activation: HAMSTER, LIVER, S-9, AROCLOR 1254 (10%), Method: PREINCUBATION
Where [13] appears, read: Test System: AMES SALMONELLA TYPHIMURIUM, Strain/Indicator: TA100, Metabolic Activation: HAMSTER, LIVER, S-9, AROCLOR 1254 (10%), Method: PREINCUBATION
[14] abbreviates: Test System: AMES SALMONELLA TYPHIMURIUM, Strain/Indicator: TA1535, Metabolic Activation: HAMSTER, LIVER, S-9, AROCLOR 1254 (10%), Method: PREINCUBATION
Where [15] appears, read: Test System: AMES SALMONELLA TYPHIMURIUM, Strain/Indicator: TA1535, Metabolic Activation: NONE, Method: PREINCUBATION

Structures are written as SMILES. Calls of active or inactive are those of the source. How the calls were made is not given here.

Consider `COC(=O)C12OC1(C)C(C)(O)OC2=O` (stereo unspecified), for which the mutagenic call by setting is: (Test System: AMES SALMONELLA TYPHIMURIUM, Strain/Indicator: TA98, Metabolic Activation: NONE, Method: DISK ASSAY) “inactive; negative”; under setting [1], “inactive; negative”; (Test System: AMES SALMONELLA TYPHIMURIUM, Strain/Indicator: TA98, Metabolic Activation: RAT, LIVER, S-9, AROCLOR 1254, Method: DISK ASSAY) “inactive; negative”; under setting [2], “active; positive”; under setting [3], “inactive; negative”; under setting [4], “inactive; negative”.

Turning to `c1ccc(Nc2ccc(Nc3ccccc3)cc2)cc1`, the mutagenic call is “inactive; negative” (End Point: IN VITRO CHROMOSOMAL ABERRATIONS, Test System: CHINESE HAMSTER LUNG CELLS (CHL), Metabolic Activation: RAT, LIVER, S-9, KC-400); “inactive; negative” (End Point: IN VITRO CHROMOSOMAL ABERRATIONS, Test System: CHINESE HAMSTER OVARY CELLS (CHO), Metabolic Activation: NONE); “inactive; negative” (End Point: IN VITRO CHROMOSOMAL ABERRATIONS, Test System: CHINESE HAMSTER OVARY CELLS (CHO), Metabolic Activation: RAT, LIVER, S-9, AROCLOR 1254); “inactive; negative; authors report equivocal results for structural changes at 0.08 and 0” (End Point: IN VITRO CHROMOSOMAL ABERRATIONS, Test System: CHL CELLS, Metabolic Activation: RAT, LIVER, S-9, SODIUM PHENOBARBITAL AND 5,6-BENZOFLAVONE); “active; positive” under setting [5]; “inactive; negative” under setting [6]. In addition, the mutagenic call is “inactive; negative” under setting [1]; “active; positive” (Test System: AMES SALMONELLA TYPHIMURIUM, Strain/Indicator: TA98, Metabolic Activation: RAT, LIVER, S-9, AROCLOR 1254 (30%), Method: PREINCUBATION); “inactive; negative” (Test System: AMES SALMONELLA TYPHIMURIUM, Strain/Indicator: TA98, Metabolic Activation: S-9, Method: STANDARD PLATE); “inactive; negative” under setting [7]; “inactive; negative” under setting [8]; “inactive; negative” under setting [3]. Further, the mutagenic call runs as follows: (Test System: AMES SALMONELLA TYPHIMURIUM, Strain/Indicator: TA100, Metabolic Activation: RAT, LIVER, S-9, AROCLOR 1254 (30%), Method: PREINCUBATION) “inactive; negative”; (Test System: AMES SALMONELLA TYPHIMURIUM, Strain/Indicator: TA100, Metabolic Activation: S-9, Method: STANDARD PLATE) “inactive; negative”.

For the compound `CC(C)(O)CCc1ccc(O)c2c(=O)c3c(O)c4c(cc3oc12)O[C@H]1OC=C[C@@H]41`, the mutagenic call was “active; positive” under setting [1], “active; positive” under setting [2], “active; positive” under setting [3] and “active; positive” under setting [4].

In the case of `Nc1nc2ccccc2[nH]1`, the mutagenic call is, setting by setting: under setting [9], “inactive; negative”; (Test System: AMES SALMONELLA TYPHIMURIUM, Strain/Indicator: TA97, Metabolic Activation: HAMSTER, LIVER, S-9, AROCLOR 1254 (30%), Method: PREINCUBATION) “inactive; negative”; under setting [10], “inactive; negative”; under setting [11], “inactive; negative”; (Test System: AMES SALMONELLA TYPHIMURIUM, Strain/Indicator: TA97, Metabolic Activation: RAT, LIVER, S-9, AROCLOR 1254 (30%), Method: PREINCUBATION) “inactive; negative”; under setting [12], “inactive; negative”. Moreover, the mutagenic call is “inactive; negative” under setting [5]; “inactive; negative” under setting [6]; “inactive; negative” (Test System: AMES SALMONELLA TYPHIMURIUM, Strain/Indicator: TA98, Metabolic Activation: RAT, LIVER, S-9, AROCLOR 1254 (10 OR 30%), Method: PREINCUBATION); “active; positive” (Test System: AMES SALMONELLA TYPHIMURIUM, Strain/Indicator: TA98, Metabolic Activation: RAT, LIVER, S-9, AROCLOR 1254, Method: PREINCUBATION); “inactive; negative” under setting [13]; “inactive; negative” under setting [7]. In addition, the mutagenic call was “inactive; negative” under setting [8]; “inactive; negative” (Test System: AMES SALMONELLA TYPHIMURIUM, Strain/Indicator: TA100, Metabolic Activation: RAT, LIVER, S-9, AROCLOR 1254 (5%), Method: PREINCUBATION); “inactive; negative” (Test System: AMES SALMONELLA TYPHIMURIUM, Strain/Indicator: TA100, Metabolic Activation: RAT, LIVER, S-9, AROCLOR 1254 (10 OR 30%), Method: PREINCUBATION); “inactive; negative” (Test System: AMES SALMONELLA TYPHIMURIUM, Strain/Indicator: TA100, Metabolic Activation: RAT, LIVER, S-9, AROCLOR 1254, Method: PREINCUBATION); “inactive; negative” under setting [14]; “inactive; negative” (Test System: AMES SALMONELLA TYPHIMURIUM, Strain/Indicator: TA1535, Metabolic Activation: HAMSTER, LIVER, S-9, AROCLOR 1254 (30%), Method: PREINCUBATION). Besides, the mutagenic call by setting is: under setting [15], “inactive; negative”; (Test System: AMES SALMONELLA TYPHIMURIUM, Strain/Indicator: TA1535, Metabolic Activation: RAT, LIVER, S-9, AROCLOR 1254 (10 OR 30%), Method: PREINCUBATION) “inactive; negative”; (Test System: AMES SALMONELLA TYPHIMURIUM, Strain/Indicator: TA1537, Metabolic Activation: HAMSTER, LIVER, S-9, AROCLOR 1254 (10%), Method: PREINCUBATION) “inactive; negative”; (Test System: AMES SALMONELLA TYPHIMURIUM, Strain/Indicator: TA1537, Metabolic Activation: HAMSTER, LIVER, S-9, AROCLOR 1254 (30%), Method: PREINCUBATION) “inactive; negative”; (Test System: AMES SALMONELLA TYPHIMURIUM, Strain/Indicator: TA1537, Metabolic Activation: NONE, Method: PREINCUBATION) “inactive; negative”; (Test System: AMES SALMONELLA TYPHIMURIUM, Strain/Indicator: TA1537, Metabolic Activation: RAT, LIVER, S-9, AROCLOR 1254 (10 OR 30%), Method: PREINCUBATION) “inactive; negative”.

With `OCCCBr`, the mutagenic call by setting is: under setting [9], “inactive; negative”; under setting [10], “inactive; negative”; under setting [11], “inactive; negative”; under setting [12], “inactive; negative”; under setting [6], “inactive; negative”; (Test System: AMES SALMONELLA TYPHIMURIUM, Strain/Indicator: TA98, Metabolic Activation: RAT, LIVER, S-9, AROCLOR 1254 (10%), Method: PREINCUBATION) “inactive; negative”. Further, the mutagenic call reads like this: under setting [13], “active; positive”; under setting [8], “active; positive”; (Test System: AMES SALMONELLA TYPHIMURIUM, Strain/Indicator: TA100, Metabolic Activation: RAT, LIVER, S-9, AROCLOR 1254 (10%), Method: PREINCUBATION) “active; positive”; under setting [14], “active; positive”; under setting [15], “active; positive”; (Test System: AMES SALMONELLA TYPHIMURIUM, Strain/Indicator: TA1535, Metabolic Activation: RAT, LIVER, S-9, AROCLOR 1254 (10%), Method: PREINCUBATION) “active; positive”.

Consider `Cc1ccc(S(=O)(=O)N2C3c4ccccc4-c4ccccc4C32)cc1` (stereo unspecified), for which the mutagenic call under setting [3] is “active; positive”.
